We go through five compounds from article PMC2363627 (British Journal of Cancer, 2001).

“And” between values parts separate entries of the source, which are not always exact repeats. Equal entries are not always repeated. “Also recorded” adds a separate entry of the source.

Series [1] can be described thus: Plasma pharmacokinetics of oral paclitaxel 120 mg/m2 combined with 1000 mg oral GF120918 in cancer patients (HPLC, non-compartmental). The conditions noted are these: for mean AUCt of paclitaxel metabolite: after oral paclitaxel 120 mg/m2 + GF120918, n = 5, mean SD. An excerpt:
(§1) Furthermore, oral administration may enable development of chronic treatment schedules resulting in sustained plasma concentrations above a pharmacological relevant threshold level. […] PATIENTS AND METHODS Patient population Patients with a histologically confirmed cancer refractory to current therapies were eligible for the study. Previous radiotherapy or chemotherapy other than taxoid therapy was allowed, provided that the last treatment was at least four weeks prior to study entry and any resulting toxicities were resolved. […] Patients were not eligible if they suffered from uncontrolled infec- tious disease, neurologic disease, bowel obstruction or sympto- matic brain metastases. Other exclusion criteria were concomitant use of known P-gp inhibitors and chronic use of H2-receptor antagonists or proton pump inhibitors. The study protocol was approved by the Medical Ethics Committee of the Institute and all patients gave written informed consent. […] The oral and i.v. course were randomized. […] Patient evaluation Pretreatment evaluation included a complete medical history and complete physical examination. Before each course, an interim history including concomitant medications taken, toxicities and performance status were registered and a physical examination was performed. Haematology was checked twice weekly after course 1 and 2 and weekly after subsequent courses. Blood chemistries including liver and renal function, serum electrolytes, total protein and albumin and glucose levels were checked weekly. All toxicities observed were graded according to the National Cancer Institute Common Toxicity Criteria (NCI CTC) (National Cancer Institute, 1988). Dose-limiting toxicities (DLT) were defined as grade 4 granulocytopenia of a duration of > 5 days, grade 4 thrombocytopenia of any duration or any grade 3/4 non- haematological toxicity except untreated nausea and vomiting. Tumour measurements were performed every other cycle, but initially after the first 2 i.v. courses. Responses were evaluated according to the WHO criteria (World Health Organization, 1979). Sample collection and analysis Blood samples for pharmacokinetic analyses were collected during course 1 and course 2. […] Blood samples were centrifuged, plasma was separated and samples were immediately stored at -20C until analysis. […] Blood samples were centrifuged at 4C, plasma was separated and samples were imme- diately stored at -20C until analysis. […] Pharmacokinetic analysis Non-compartmental pharmacokinetic methods were applied to process the results (Gibaldi and Perrier, 1982). […] The time above the threshold concentrations of 0.05 M and 0.1 M (T > 0.05 M, T > 0.1 M) was determined using linear interpola- tion. […] Statistical analysis of the data was performed using the nonparametric Mann-Whitney U-test. The a priori level of signifi- cance was P = 0.05.

Series [2] can be described thus: Plasma pharmacokinetics of oral paclitaxel 120 mg/m2 combined with 15 mg kg-1 cyclosporin A in patients (previous study at the Institute). It counts as in vivo, human. The conditions noted are these: for mean AUCt of paclitaxel metabolite: after oral paclitaxel + CsA, n = 3, mean SD, not published before.
Text: as §1, with “The a priori level of signifi- cance was P = 0.05.” left out

Series [3] in a line: Plasma pharmacokinetics of GF120918 after a single 1000 mg oral dose in cancer patients (HPLC). The conditions noted are these: 1000 mg oral GF120918; mean SD. It counts as in vivo, human. The source says:
(§2) Furthermore, oral administration may enable development of chronic treatment schedules resulting in sustained plasma concentrations above a pharmacological relevant threshold level. […] PATIENTS AND METHODS Patient population Patients with a histologically confirmed cancer refractory to current therapies were eligible for the study. Previous radiotherapy or chemotherapy other than taxoid therapy was allowed, provided that the last treatment was at least four weeks prior to study entry and any resulting toxicities were resolved. […] Patients were not eligible if they suffered from uncontrolled infec- tious disease, neurologic disease, bowel obstruction or sympto- matic brain metastases. Other exclusion criteria were concomitant use of known P-gp inhibitors and chronic use of H2-receptor antagonists or proton pump inhibitors. The study protocol was approved by the Medical Ethics Committee of the Institute and all patients gave written informed consent. […] The oral and i.v. course were randomized. […] Patient evaluation Pretreatment evaluation included a complete medical history and complete physical examination. […] Responses were evaluated according to the WHO criteria (World Health Organization, 1979). […] The time above the threshold concentrations of 0.05 M and 0.1 M (T > 0.05 M, T > 0.1 M) was determined using linear interpola- tion. […]

In the next series the test system is P-gp. More on the design: method as in Hyafil et al, 1993. The conditions noted are these: ref Hyafil et al, 1993; cited from earlier work.
The nature of series [4]: Plasma pharmacokinetics of i.v. paclitaxel 175 mg/m2 as 3-hour infusion in cancer patients (limited sampling model). The conditions noted are these: for AUC: human, plasma, iv. The format is in vivo, human.
Text: as §1

A short description of series [5]: Toxicity in patients graded by NCI Common Toxicity Criteria. The conditions noted are these: one course oral paclitaxel 120 mg/m2 + 1000 mg GF120918.
Text: as §2

Series [6] has as its system histologically confirmed cancer refractory to current therapies. Nature of the series: Tumour response according to WHO criteria. The format is in vivo, human. As to conditions: six patients; one oral course + GF120918, subsequent i.v. paclitaxel courses.
Text: as §2

On the set-up of series [7]: method as in Malingre et al, 2000. The conditions noted are these: ref Malingre et al, 2000, cited from earlier work.
The conditions of series [8]: cited from earlier work.
Setting [9] is: individual patients 1-6, oral 120 mg/m2 + GF120918 1000 mg.

With `CC(=O)O[C@H]1C(=O)[C@@]2(C)[C@H]([C@H](OC(=O)c3ccccc3)[C@]3(O)C[C@H](OC(=O)[C@H](O)[C@@H](NC(=O)c4ccccc4)c4ccc(O)cc4)C(C)=C1C3(C)C)[C@]1(OC(C)=O)CO[C@@H]1C[C@@H]2O` [3p-hydroxypaclitaxel], the results for the mean AUCt of paclitaxel metabolite in series [1] and in series [2] were 0.36 µM·h and 0.48 µM·h, respectively.
For `CC(=O)O[C@H]1C(=O)[C@@]2(C)[C@H]([C@H](OC(=O)c3ccccc3)[C@]3(O)C[C@H](OC(=O)[C@H](O)[C@@H](NC(=O)c4ccccc4)c4ccc(O)cc4)C(C)=C1C3(C)C)[C@]1(OC(C)=O)CO[C@@H]1[C@@H](O)[C@@H]2O` [6,3p-dihydroxypaclitaxel] the same measures were 0.24 µM·h and 0.88 µM·h.
For `CC(=O)O[C@H]1C(=O)[C@@]2(C)[C@H]([C@H](OC(=O)c3ccccc3)[C@]3(O)C[C@H](OC(=O)[C@H](O)[C@@H](NC(=O)c4ccccc4)c4ccccc4)C(C)=C1C3(C)C)[C@]1(OC(C)=O)CO[C@@H]1[C@@H](O)[C@@H]2O` [6-hydroxypaclitaxel], the mean AUCt of paclitaxel metabolite in series [1] was 0.4 µM·h; in series [2] it was 1.69 µM·h. In addition, the “AUCt ratio 6-hydroxypaclitaxel/3p-hydroxypaclitaxel” value in series [1] (oral paclitaxel + GF120918 (0.40/0.36)) is 1.1; in series [2] (oral paclitaxel + CsA (1.69/0.48)) it was 3.5.
As for `COc1cc2c(cc1OC)CN(CCc1ccc(NC(=O)c3cccc4c(=O)c5cccc(OC)c5[nH]c34)cc1)CC2` [GF120918], the “mean maximum concentration of GF120918” value in series [3] is 434 267 ng ml-1. The “concentration at which active in in vitro models of P-gp inhibition” value with P-gp is reported as “around 20 nM”.
As to `CC(=O)O[C@H]1C(=O)[C@@]2(C)[C@H]([C@H](OC(=O)c3ccccc3)[C@]3(O)C[C@H](OC(=O)[C@H](O)[C@@H](NC(=O)c4ccccc4)c4ccccc4)C(C)=C1C3(C)C)[C@]1(OC(C)=O)CO[C@@H]1C[C@@H]2O` [paclitaxel], the “T > 0.1 µM, oral paclitaxel (time above 0.1 µM)” value in series [1] (setting [9]) was 8.8 h and 15.3 h and 9.6 h and 2.6 h and 4.2 h and 4.3 h. Besides, in [1] (setting [9]), the “T > 0.05 M, oral paclitaxel (time above 0.05 M)” value is 15.1 h and 25.0 h and 23.9 h and 3.9 h and 6.1 h and 6.7 h. Besides, the AUC in series [4] (175 mg/m2, AUC, i.v. paclitaxel, individual patients 1-6, 175 mg/m2, 3-hour infusion) was found to be 18.6 µM·h; in [4] (175 mg/m2, AUC, i.v. paclitaxel, mean SD, n = 6, 175 mg/m2, 3-hour infusion) it was 15.9 µM·h; in series [4] (175 mg/m2, mean AUC of paclitaxel, i.v. paclitaxel 175 mg/m2, 3-hour infusion, mean ± SD), 15.9 µM·h. Also, the “T > 0.1 µM, i.v. paclitaxel” value in [4] (individual patients 1-6, 175 mg/m2, 3-hour infusion) was 22.3 h and 12.1 h and 20.9 h and 13.8 h and 16.6 h and 13.9 h; in series [4] (mean, n = 6 (SD 4.2 printed in separate line), 175 mg/m2, 3-hour infusion) it was 16.6 h. Besides, in series [5], the “tolerability of the oral combination of paclitaxel with GF120918” value is on record as “well tolerated; also recorded: very well tolerated”. Further, in series [6], the tumour responses result is given as “no tumour responses were observed”. For the same compound, in [7] (oral paclitaxel 120 mg/m2 + CsA, previously performed study, mean ± SD), the “mean AUC of paclitaxel” value was 2.55 ± 2.29 µM·h. The Cmax in series [7] (read-out: Cmax, oral paclitaxel, oral 120 mg/m2 + 15 mg kg-1 cyclosporin A, n = 3, mean SD) is 310 nM. For the same compound, in [8] (background statement, no P-gp blocker, no reference given), the “oral bioavailability of paclitaxel” value was less than 10%. Moreover, the “increase in oral bioavailability of paclitaxel by co-administration of CsA” value in series [8] (cancer patients, oral paclitaxel + CsA, ref Meerum Terwogt et al, 1998, 1999) is “at least 7 fold”. Moreover, in series [8] (oral 60 mg/m2 without P-gp blocker, vs i.v. 175 mg/m2, ref Meerum Terwogt et al, 1998, 1999), the “bioavailability of single agent oral paclitaxel” value was 4%. Moreover, in series [8] (using i.v. paclitaxel data at 100 mg/m2 and 125 mg/m2 (Huizing et al, 1997), ref Meerum Terwogt et al, 1999), the “apparent bioavailability of oral paclitaxel as a single agent” value is reported as 6%.
